Laboratory results reported in publication PMC10978996 (Nature Communications, 2024).

Assays:
[1] = tested on: CNCCc1c[nH]c2cccc(OP(=O)(O)O)c12; assay: UHPLC-MS methyltransferase assay, Michaelis-Menten; assay type: biochemical, Psilocybe cubensis; details: 1 mM SAM, 50 mM Tris pH 8.4, 28 °C, second methyl transfer
[2] = molecular target: T1, PsiM (Psilocybe cubensis, UniProt P0DPA9); assay: isothermal titration calorimetry; assay type: binding
T1 construct: full length, E. coli; Crystals: pJF45, His6 cut off by thrombin, vector-derived TEV site kept at N-terminus; Wild-type ITC and activity: His6-tagged without thrombin/TEV sites (pFB13); N247M: made from pJF45 template in pET-28a

[3] = molecular target: T1, PsiM; assay: UHPLC-MS methyltransferase assay, Michaelis-Menten; assay type: biochemical; details: 1 mM SAM, 50 mM Tris pH 8.4, 28 °C; first methyl transfer

Q: PsiM (Psilocybe cubensis) was tested. Which Km [1] did it give?
A: The Km was 492 ± 154 µM.

Q: And the kcat [1]?
A: Its kcat is 0.001 ± 0.00017 s⁻¹.

Q: Which Kd [2] does the source give for `Nc1ncnc2c1ncn2[C@@H]1O[C@H](CSCC[C@H](N)C(=O)O)[C@@H](O)[C@H]1O` [SAH] here?
A: The Kd was 66 ± 49 µM.

Q: Which Km [3] does the source give for `NCCc1c[nH]c2cccc(OP(=O)(O)O)c12` [norbaeocystin] here?
A: Its Km is 575 ± 100 µM.

Q: What about the Kd [2] of the same compound?
A: The Kd was 35.7 ± 5.4 µM.

Q: For `CNCCc1c[nH]c2cccc(OP(=O)(O)O)c12` [baeocystin], which Kd [2] is on record?
A: The Kd was 77.2 ± 3.5 µM.
